# Laboratory results: patent US10533018B2, “Antimicrobial prochelators to target drug-resistant bacteria and methods of making and using the same” (Duke University, priority 2015, dated 2020)
# pIC50: −log10 of the molar value. Where two headings read alike, the source gives them in different places.
# Key:
# [1] = tested on: resistant E. coli HB101 K-12 transformed to express β-lactamase; experiment: microbe, parasite or virus in culture; type: cell-based, Escherichia coli; conditions: for pIC50: Escherichia coli
# Experimental: In order to determine the antibiotic activity of DB4-51, a debilitated strain of Escherichia coli (HB101 K-12) was transformed with the pGLO plasmid from Bio-Rad in order to express β-lactamase. This transformation was confirmed by growing on a selective medium containing 100 μg/ml ampicillin in Lennox LB with 1.5% agar. A broth microdilution assay was employed to determine the relative activity of DB4-51 against susceptible (HB 101 K-12, no β-lactamase) and resistant (HB 101 K-12 transformed to express β-lactamase) E. coli. […] The bacterial growth was monitored by recording each well's absorbance at 600 nm (OD600.) The OD600 values of E. coli suspensions incubated with various compounds were compared in order to assess their activities.
# FIG. 7: OD600 of susceptible and resistant K-12 E. coli cultures against DB4-51 and known antibiotics as a function of concentration. Ampicillin has a penicillin core and cephalexin has a cephalosporin core. Cultures were grown in LB broth at 37° C. while shaking at 200 rpm for 18 hours and then diluted to an OD600 of 0.005 before adding the compounds. […]
# Table 1: Calculated IC50 values for DB4-51, cephalexin, ampicillin, and pyrithione. These values were derived by fitting the data to a log dose-response curve and reporting the concentration corresponding to half the maximum OD600 value for each compound.
# [2] = tested on: CCD-19Lu human lung fibroblast cells
# Experimental: (§1) CellTox Green LDH Cytotoxicity Detection Kit was purchased from Promega. Cell lines were purchased from the ATCC. All work was performed in a laminar-flow hood using sterile techniques. […] After splitting and counting, black, clear bottom 96-well plates were seeded at a density of 15,000 cells/well and incubated overnight at 37° C. in a fully humidified atmosphere containing 5% CO2. […] Untreated cells served as the negative control while wells containing untreated cells incubated with 1% Triton X-100 served as the positive control.
# (§2) Using a cytotoxicity assay, the viability of mammalian cells was monitored as a function of their membrane integrity.
# [3] = tested on: HepG2 human liver epithelial cells
# Experimental: as §1, §2
# +Bla K-12 E. coli = type: cell-based, Escherichia coli; conditions: 1 h, ICP-MS; for increase in cell-associated copper over the CuCl2 control: 10 μM compound + 10 μM supplemental CuCl2; for changes in cell-associated copper, iron, or zinc vs untreated control: 2.5-10 μM compound alone
# Experimental: PT is recognized as an ionophore that shuttles metals across cell membranes and thereby disrupts cellular metal homeostasis. […] To test this hypothesis, inductively-coupled plasma mass spectrometry (ICP-MS) was used to measure the concentration of cell-associated copper, iron, and zinc for +Bla K-12 E. coli grown under a variety of conditions. Untreated E. coli grown in LB media were compared to those incubated for one hour in LB containing 0, 2.5, 5, or 10 μM DB4-51 or PT with and without 10 μM supplemental CuCl2. The concentrations of cell-associated metals in +Bla E. coli grown in these conditions are reported as a ratio against bacterial growth as measured by the OD600 reading at the time of sampling.
# FIG. 6: Cellular metal concentrations of +Bla K-12 E. coli. Cultures of +Bla K-12 E. coli were incubated for 1 h in LB media, LB containing no treatment, 10 μM added CuCl2, and DB4-51 (top) or PT (bottom) at indicated concentrations in the absence or presence of 10 μM CuCl2. Metal contents of cell pellets were analysed via ICP-MS and reported as a function of OD600.
# [4] = tested on: Type III β-lactamase from Enterobacter cloacae; experiment: LC-MS conversion of prochelator by β-lactamase; type: biochemical
# Experimental: A commercially available β-lactamase (type III from Enterobacter cloacae, Sigma Aldrich) was used to verify the specificity of compound DB4-51 activation. Aqueous samples of the prochelator with and without β-lactamase were incubated at 25° C. and LC-MS was performed periodically to monitor the conversion. Percent conversion was calculated based upon the area under the LC-MS peak that corresponds to the mass of DB4-51.
# LC-MS performed on samples containing 100 μM DB4-51, 10 μM Rofecoxib (as internal standard), and 0.5 units/mL β-lactamase in PBS. Samples were incubated at room temperature and analyzed via LC-MS at time 0. The mass spectrum corresponding to the chromatographic peak eluting at 14 min matches the expected m/z value for […]. After incubation, a new peak appears at 7 mins with corresponding m/z values consistent with expected masses of PT disulfide and the 2:1 PT complex with iron. The internal standard was Rofecoxib which elutes at 16 min. The concentrations of DB4-51, PT, and internal standard were calculated based on prepared calibration curves of the integrated area under the UV peak of each component.
# The reaction products of the prochelator DB4-162 were analyzed by LC-MS. A sample of 100 μM DB4-162 and 10 μM Rofecoxib (internal standard) in PBS was divided into two LC-MS vials and to one was added 0.5 units/mL β-lactamase. After incubating at room temperature, the samples were run on the LC-MS. Integrating the area under the peak of the UV-trace gives a measure of the concentration of that species. By serial dilution, a calibration curve was constructed in order to quantify the concentration of DB4-162 present in solution. The mass spectrum confirms that the prochelator, with a molecular weight of 477.1 g/mol, elutes at 14.5 minutes (FIG. 10).
# 7 bacterial strains = experiment: Broth microdilution, summary across strains tested; type: cell-based
# Experimental: Cultures were incubated on LB (Lennox, Sigma) agar at 37° C. in ambient atmospheric composition. Before beginning an experiment, a single bacterial colony grown on LB agar was resuspended in 2 mL LB broth and incubated overnight to form a turbid cell suspension. The overnight culture was diluted 1:100 in LB and used immediately as the working culture. To assess the antibacterial activity of compounds, the working bacterial culture was aliquoted in a clear, flat-bottomed, 96-well polystyrene plate (Costar) and the compound of interest was added in 2-fold serial dilution from 500 to 1 μM. Plates were covered with a breathable sealing film (Aeroseal, Genesee Scientific) and incubated at 37° C. in ambient atmospheric composition with shaking at 200 rpm. Optical density at 600 nm was recorded after 4 h and 20 h for each well using a standard OD600 protocol with LB serving as the blank. The resulting dose-response curves were fit to a nonlinear regression in GraphPad Prism Version 6 to calculate the IC50 of DB4-51 in each strain.
# [5] = concentrations below 500 μM, 24 hour
structure (smiles),measurement,setting,value
CC1(C)S[C@@H]2[C@H](NC(=O)[C@H](N)c3ccccc3)C(=O)N2[C@H]1C(=O)O [Ampicillin],pIC50,[1],< 3.25
"O=C(Cc1ccccc1)N[C@@H]1C(=O)N2C(C(=O)O)=C(CSc3cccc[n+]3[O-])CS[C@H]12 [DB4-51, 2-((((6R,7R)-2-carboxy-8-oxo-7-(2-phenylacetamido)-5-thia-1-azabicyclo[4.2.0]oct-2-en-3-yl)methyl)thio)pyridine 1-oxide]",LD50,[2]; 24 h,> 500 µM
same,cytotoxicity,"[2]; below 250 μM, 24 h",non-toxic
same,LD50,[3]; 24 h,> 500 µM
same,cell death,"[3]; at 500 μM, 24 h",more than 50%
same,cytotoxicity,"[3]; below 250 μM, 24 h",non-toxic
same,increase in cell-associated copper over the CuCl2 control,+Bla K-12 E. coli,slight but statistically insignificant increase
same,"changes in cell-associated copper, iron, or zinc vs untreated control",+Bla K-12 E. coli,no significant changes
same,Percent conversion (LC-MS peak area),"[4]; 100 μM, 0.5 units/ml β-lactamase, pH 7.4 PBS, after 4 hours",~80%
same,decrease of chromatographic peak area of prochelator,[4]; after 4 hours in the presence of β-lactamase,more than 80%
same,PT released from the prochelator (area under PT peak),"[4]; with β-lactamase, PT difficult to quantify",50%
same,IC50 of DB4-51 relative to that of PT,7 bacterial strains; most ampicillin-resistant strains tested,2-5 fold
same,pIC50,[1],4.41
same,decrease of IC50 over time,"[1]; resistant K-12, over 22 hours",50%
"Cc1csc(=S)n1OCC1=C(C(=O)O)N2C(=O)[C@@H](NC(=O)Cc3ccccc3)[C@H]2SC1 [DB4-162, (6R,7R)-3-(((4-methyl-2-thioxothiazol-3(2H)-yl)oxy)methyl)-8-oxo-7-(2-phenylacetamido)-5-thia-1-azabicyclo[4.2.0]oct-2-ene-2-carboxylic acid]",reduction of prochelator peak,"[4]; 100 μM, 0.5 units/mL β-lactamase, PBS, 4 hours",more than 95%
"[O-][n+]1ccccc1S [PT, 2-mercaptopyridine N-oxide]",cell death,[2]; [5],≤ 50%
same,cell death,[3]; [5],≤ 50%
same,increase in cell-associated copper over the CuCl2 control,+Bla K-12 E. coli,30 fold
same,"changes in cell-associated copper, iron, or zinc vs untreated control",+Bla K-12 E. coli,no significant changes
same,pIC50,"7 bacterial strains; 500 μM BCS, depending on strain, read-out: IC50 across strains under Cu limiting conditions",4.70 to 5.22
same,pIC50,"7 bacterial strains; LB broth, span over 7 strains, read-out: IC50 across all strains tested",4.96 to 5.70
same,pIC50,[1],> 4.74
